Laboratory results taken from US20160280699A1, “SUBSTITUTED PHENYLALANINE DERIVATIVES” (BAYER PHARMA AKTIENGESELLSCHAFT, priority 2013, published 2016).
Where a name gives a salt, the structure may show the parent alone.

Experiments:
human factor XIa = target: T1, human factor XIa (Homo sapiens, UniProt P03951); assay: Measurement of FXIa inhibition (fluorogenic peptide substrate Boc-Glu(OBzl)-Ala-Arg-AMC); assay type: biochemical; details: factor XIa from Kordia, 15 min preincubation, 30 min at 22° C., fluorescence
T1 construct: purchased Kordia
T1 sequence (P03951 388-625 limits assumed): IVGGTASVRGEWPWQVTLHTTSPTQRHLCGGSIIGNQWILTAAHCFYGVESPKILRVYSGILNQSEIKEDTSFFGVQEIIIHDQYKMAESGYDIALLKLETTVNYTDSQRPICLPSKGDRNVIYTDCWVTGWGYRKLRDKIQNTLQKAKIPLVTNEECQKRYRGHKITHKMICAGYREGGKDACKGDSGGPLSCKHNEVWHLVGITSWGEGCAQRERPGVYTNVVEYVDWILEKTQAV
T1 sequence (P03951 19-387 partner limits assumed): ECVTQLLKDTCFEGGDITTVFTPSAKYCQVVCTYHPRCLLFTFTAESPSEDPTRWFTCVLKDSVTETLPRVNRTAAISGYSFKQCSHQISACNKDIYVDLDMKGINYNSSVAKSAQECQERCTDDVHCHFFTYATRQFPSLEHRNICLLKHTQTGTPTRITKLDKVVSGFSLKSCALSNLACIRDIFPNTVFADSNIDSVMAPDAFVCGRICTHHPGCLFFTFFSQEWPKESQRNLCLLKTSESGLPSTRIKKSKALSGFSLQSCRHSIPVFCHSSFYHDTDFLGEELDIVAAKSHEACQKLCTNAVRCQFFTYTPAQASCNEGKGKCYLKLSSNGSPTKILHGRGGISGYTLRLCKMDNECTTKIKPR
Description: The factor XIa inhibition of the substances according to the invention is determined using a biochemical test system which utilizes the reaction of a peptidic factor XIa substrate to determine the enzymatic activity of human factor XIa. Here, factor XIa cleaves from the peptic factor XIa substrate the C-terminal aminomethylcoumarin (AMC), the fluorescence of which is measured. The determinations are carried out in microtitre plates.
Test substances are dissolved in dimethyl sulphoxide and serially diluted in dimethyl sulphoxide (3000 μM to 0.0078 μM; resulting final concentrations in the test: 50 μM to 0.00013 μM). In each case 1 μl of the diluted substance solutions is placed into the wells of white microtitre plates from Greiner (384 wells). Subsequently, the following are added successively: 20 μl of assay buffer (50 mmol/l Tris buffer pH 7.4; 100 mmol/l sodium chloride; 5 mmol/l calcium chloride; 0.1% bovine serum albumin) and 20 μl of factor XIa from Kordia (0.45 nM in assay buffer). After 15 min of incubation, the enzyme reaction is started by addition of 20 μl of the factor XIa substrate Boc-Glu(OBzl)-Ala-Arg-AMC dissolved in assay buffer (10 μM in assay buffer) from Bachem, the mixture is incubated at room temperature (22° C.) for 30 min and fluorescence is then measured (excitation: 360 nm, emission: 460 nm). The measured emissions of the test batches with test substance are compared to those of control batches without test substance (only dimethyl sulphoxide instead of test substance in dimethyl sulphoxide), and IC50 values are calculated from the concentration/activity relationships.

human and animal plasma = assay: Determination of anticoagulatory activity: activated partial thromboplastin time (aPTT) in plasma; assay type: biochemical; details: concentration of test substance which brings about a 1.5-fold extension of the aPTT, 37° C., C.K. Prest kit
Description: The anticoagulatory activity of the test substances is determined in vitro in human and animal plasma (for example mouse, rat, rabbit, pig and dog plasma). To this end, blood is drawn off in a mixing ratio of sodium citrate/blood of 1:9 using a 0.11 molar sodium citrate solution as receiver. Immediately after the blood has been drawn off, it is mixed thoroughly and centrifuged at about 4000 g for 15 minutes. The supernatant is pipetted off.
The activated partial thromboplastin time (aPTT) is determined in the presence of varying concentrations of test substance or the corresponding solvent using a commercial test kit (C.K. Prest from Diagnostica Stago). The test compounds are incubated with the plasma and the PTT reagent (cephalin, kaolin) at 37° C. for 3 minutes. Coagulation is then started by addition of a 25 mM aqueous calcium chloride solution, and the time when coagulation occurs is determined. The concentration of test substance which brings about a 1.5-fold extension of the aPTT is determined Activity data from this test are listed in Table B below: […]

| IC50 (human factor XIa) | SMILES | aPTT (human and animal plasma) |
| --- | --- | --- |
| 1.1 nM | Cc1cc(N2CCNCC2)ncc1-c1ccc(C[C@H](NC(=O)[C@H]2CC[C@H](CN)CC2)C(=O)Nc2ccc(-c3nn[nH]n3)c(F)c2)cc1 [Example 47, N-alpha-{[trans-4-(Aminomethyl)cyclohexyl]carbonyl}-N-[3-fluoro-4-(2H-tetrazol-5-yl)phenyl]-4-[4-methyl-6-(piperazin-1-yl)pyridin-3-yl]-L-phenylalaninamide hydrochloride] | 0.08 µmol/L |
| 3 nM | Cc1nc(N)ncc1-c1ccc(C[C@H](NC(=O)C2CCC(CN)CC2)C(=O)Nc2ccc(-c3nnn[nH]3)cc2)cc1 (stereo partly drawn) [Example 55, N-alpha-{[trans-4-(Aminomethyl)cyclohexyl]carbonyl}-4-(2-amino-4-methylpyrimidin-5-yl)-N-[4-(1H-tetrazol-5-yl)phenyl]-L-phenylalaninamide hydrochloride] | 0.22 µmol/L |
| 7.2 nM | CN1CCN(c2ccc(-c3ccc(C[C@H](NC(=O)C4CCC(CN)CC4)C(=O)Nc4ccc(-c5nnn[nH]5)cc4)cc3)cn2)CC1 (stereo partly drawn) [Example 54, N-alpha-{[trans-4-(Aminomethyl)cyclohexyl]carbonyl}-4-[6-(4-methylpiperazin-1-yl)pyridin-3-yl]-N-[4-(1H-tetrazol-5-yl)phenyl]-L-phenylalaninamide hydrochloride] | 0.21 µmol/L |
| 5.4 nM | NC[C@H]1CC[C@H](C(=O)N[C@@H](Cc2ccc(-c3ccc(N4CCOCC4)nc3)cc2)C(=O)Nc2ccc(-c3cc(=O)[nH][nH]3)cc2)CC1 [Example 34, N-alpha-{[trans-4-(Aminomethyl)cyclohexyl]carbonyl}-4-[6-(morpholin-4-yl)pyridin-3-yl]-N-[4-(5-oxo-2,5-dihydro-1H-pyrazol-3-yl)phenyl]-L-phenylalaninamide hydrochloride] | 0.14 µmol/L |
| 4.4 nM | Cc1ccncc1-c1ccc(C[C@H](NC(=O)C2CCC(CN)CC2)C(=O)Nc2ccc(-c3nn[nH]n3)cc2)cc1 (stereo partly drawn) [Example 57, N-alpha-{[trans-4-(Aminomethyl)cyclohexyl]carbonyl}-4-(4-methylpyridin-3-yl)-N-[4-(2H-tetrazol-5-yl)phenyl]-L-phenylalaninamide hydrochloride] | 0.35 µmol/L |
| 2.6 nM | Cl.NC[C@H]1CC[C@H](C(=O)N[C@@H](Cc2ccc(-c3cnc(N4CCOCC4)nc3)cc2)C(=O)Nc2ccc(-c3nc(C(F)(F)C(F)(F)C(=O)O)n[nH]3)cc2)CC1 [Example 59, 3-(5-{4-[(N-{[trans-4-(Aminomethyl)cyclohexyl]carbonyl}-4-[2-(morpholin-4-yl)pyrimidin-5-yl]-L-phenylalanyl)amino]phenyl}-1H-1,2,4-triazol-3-yl)-2,2,3,3-tetrafluoropropanoic acid hydrochloride] | 0.08 µmol/L |
| 3.6 nM | Cc1cnccc1-c1ccc(C[C@H](NC(=O)[C@H]2CC[C@H](CN)CC2)C(=O)Nc2ccc3c(=O)[nH][nH]c3c2)cc1 [Example 23, N-alpha-{[trans-4-(Aminomethyl)cyclohexyl]carbonyl}-4-(3-methylpyridin-4-yl)-N-(3-oxo-2,3-dihydro-1H-indazol-6-yl)-L-phenylalaninamide hydrochloride] | 0.24 µmol/L |
| 2.4 nM | NC[C@H]1CC[C@H](C(=O)N[C@@H](Cc2ccc(-c3ccc(Oc4cccnc4)nc3)cc2)C(=O)Nc2ccc(-c3nn[nH]n3)cc2)CC1 [Example 32, N-alpha-{[trans-4-(Aminomethyl)cyclohexyl]carbonyl}-4-[6-(pyridin-3-yloxy)pyridin-3-yl]-N-[4-(2H-tetrazol-5-yl)phenyl]-L-phenylalaninamide hydrochloride] | 0.3 µmol/L |
| 9.6 nM | CN(C)CCCOc1ccc(-c2ccc(C[C@H](NC(=O)C3CCC(CN)CC3)C(=O)Nc3ccc(-c4nnc(Cl)[nH]4)cc3)cc2)cn1 (stereo partly drawn) [Example 56, N-alpha-{[trans-4-(Aminomethyl)cyclohexyl]carbonyl}-N-[4-(3-chloro-4H-1,2,4-triazol-5-yl)phenyl]-4-{6-[3-(dimethylamino)propoxy]pyridin-3-yl}-L-phenylalaninamide hydrochloride] | 0.25 µmol/L |
| 2.1 nM | Cc1ncccc1-c1ccc(C[C@H](NC(=O)[C@H]2CC[C@H](CN)CC2)C(=O)Nc2ccc(-c3nn[nH]n3)cc2)cc1 [Example 13, N-alpha-{[trans-4-(Aminomethyl)cyclohexyl]carbonyl}-4-(2-methylpyridin-3-yl)-N-[4-(2H-tetrazol-5-yl)phenyl]-L-phenylalaninamide hydrochloride] | 0.13 µmol/L |
| 15 nM | COc1nc(N2CCN(C)CC2)ncc1-c1ccc(C[C@H](NC(=O)[C@H]2CC[C@H](CN)CC2)C(=O)Nc2ccc(-c3nn[nH]n3)cc2)cc1 [Example 31, N-alpha-{[trans-4-(Aminomethyl)cyclohexyl]carbonyl}-4-[4-methoxy-2-(4-methylpiperazin-1-yl)pyrimidin-5-yl]-N-[4-(2H-tetrazol-5-yl)phenyl]-L-phenylalaninamide hydrochloride] | 0.22 µmol/L |
| 1.8 nM | NC[C@H]1CC[C@H](C(=O)N[C@@H](Cc2ccc(-c3ccnc(N4CCOCC4)c3Cl)cc2)C(=O)Nc2ccc(-c3nn[nH]n3)cc2)CC1 [Example 43, N-alpha-{[trans-4-(Aminomethyl)cyclohexyl]carbonyl}-4-[3-chloro-2-(morpholin-4-yl)pyridin-4-yl]-N-[4-(2H-tetrazol-5-yl)phenyl]-L-phenylalaninamide hydrochloride] | 0.37 µmol/L |
| 5.9 nM | NC[C@H]1CC[C@H](C(=O)N[C@@H](Cc2ccc(-c3cnccc3Cl)cc2)C(=O)Nc2ccc(-c3nn[nH]n3)cc2)CC1 [Example 12, N-alpha-{[trans-4-(Aminomethyl)cyclohexyl]carbonyl}-4-(4-chloropyridin-3-yl)-N-[4-(2H-tetrazol-5-yl)phenyl]-L-phenylalaninamide hydrochloride] | 0.43 µmol/L |
| 1.3 nM | NC[C@H]1CC[C@H](C(=O)N[C@@H](Cc2ccc(-c3cccnc3C(F)(F)F)cc2)C(=O)Nc2ccc(-c3nnn[nH]3)cc2)CC1 [Example 50, N-alpha-{[trans-4-(Aminomethyl)cyclohexyl]carbonyl}-N-[4-(1H-tetrazol-5-yl)phenyl]-4-[2-(trifluoromethyl)pyridin-3-yl]-L-phenylalaninamide hydrochloride] | 0.16 µmol/L |
| 3.1 nM | NC[C@H]1CC[C@H](C(=O)N[C@@H](Cc2ccc(-c3ccc(N4CCOCC4)nc3)cc2)C(=O)Nc2ccc3c(=O)[nH][nH]c3c2)CC1 [Example 24, N-alpha-{[trans-4-(Aminomethyl)cyclohexyl]carbonyl}-4-[6-(morpholin-4-yl)pyridin-3-yl]-N-(3-oxo-2,3-dihydro-1H-indazol-6-yl)-L-phenylalaninamide hydrochloride] | 0.18 µmol/L |
| 6.7 nM | COc1ccc(-c2ccc(C[C@H](NC(=O)[C@H]3CC[C@H](CN)CC3)C(=O)Nc3ccc4c(=O)[nH][nH]c4c3)cc2)c(C)n1 [Example 30, N-alpha-{[trans-4-(Aminomethyl)cyclohexyl]carbonyl}-4-(6-methoxy-2-methylpyridin-3-yl)-N-(3-oxo-2,3-dihydro-1H-indazol-6-yl)-L-phenylalaninamide hydrochloride] | 0.34 µmol/L |

| SMILES | IC50 (human factor XIa) | aPTT (human and animal plasma) |
| --- | --- | --- |
| NC[C@H]1CC[C@H](C(=O)N[C@@H](Cc2ccc(-c3cccnc3)cc2)C(=O)Nc2ccc(-c3noc(=O)[nH]3)cc2)CC1 [Example 14, N-alpha-{[trans-4-(Aminomethyl)cyclohexyl]carbonyl}-N-[4-(5-oxo-4,5-dihydro-1,2,4-oxadiazol-3-yl)phenyl]-4-pyridin-3-yl-L-phenylalaninamide hydrochloride] | 8.5 nM | 0.28 µmol/L |
| CN(C)CCCOc1ccc(-c2ccc(C[C@H](NC(=O)[C@H]3CC[C@H](CN)CC3)C(=O)Nc3ccc(-c4noc(=O)[nH]4)cc3)cc2)cn1 [Example 19, N-alpha-{[trans-4-(Aminomethyl)cyclohexyl]carbonyl}-4-{6-[3-(dimethylamino)propoxy]pyridin-3-yl}-N-[4-(5-oxo-4,5-dihydro-1,2,4-oxadiazol-3-yl)phenyl]-L-phenylalaninamide hydrochloride] | 16 nM | 0.17 µmol/L |
